Test results from US20080206364A1, “Topical nitric oxide as a treatment of autoimmune diseases” (Nitric Biotherapeutics, Inc., priority 2006, published 2008).
Entries after “also recorded” stand apart in the source; their conditions may differ.

Experiments:
[1] = tested on: full thickness infected wound; assay: Histology of full thickness infected wound punch biopsies, gNO-treated vs control animals; type: in vivo; conditions: for toxic effects (cellular debris) in wound tissue: in vivo exposure, 200 ppm gNO, open wound animal model
Description: FIG. 5 illustrates histology analysis of full thickness infected wound exposed to 200 ppm gNO for 24 hours.
FIG. 5 presents histological analysis of tissue blocks prepared on wound punch biopsies from animals in NO-treated and control groups. Samples from the control group show more advanced neutrophil infiltration and so a higher degree of inflammatory reaction. […] Overall, a healthier healing process is observed in the wounds treated with gNO.

collagenase mRNA = assay: mRNA expression for collagenase following exposure to gNO; type: cell-based; conditions: 200 ppm gNO, 24 and 48 hours, with increasing exposure time
Description: Witte M B, et al, (2002) Nitric oxide enhances […] wound healing in diabetes, Br J Surg., 89:1594-601. Thus, Applicants believe that NO may upregulate expression of both collagenase (MMP-1) and gelatinase (MMP-2), which may be important in keeping the wound clean from necrotic tissue while not prolonging the inflammatory phase.

collagen mRNA = assay: mRNA expression for collagen following exposure to NO; type: cell-based
Description: Rather than applying exogenous collagenase for enzymatic debridement of necrotic tissue, exposing a wound with necrotic tissue to exogenous NO gas to upregulate endogenous collagenase may be more beneficial. When endogenous collagenase is released by the cell, it automatically releases TIMP's (tissue inhibitor of metalloproteinase). This ensures that the matrix degradation is coordinated and allows the establishment of sharp geographical boundaries of collagenolytic activity and the protection of areas of connective tissue from the activity of the enzyme. In contrast, use of exogenous collagenase material to debride a wound confers no protection to specific areas of the wound as it is active on every cell that comes in contact with it whether or not the effect is desired.
Preferably, after the exposure of the wound to high concentration of nitric oxide gas for a first treatment period (e.g., 5-8 hours per day), the necrotic tissue may be mechanically removed easily and the concentration of nitric oxide gas can be decreased for a second treatment period. The low concentration of nitric oxide gas (e.g., at 5-20 ppm) delivered for the second treatment period may upregulate the expression of collagen mRNA leading to synthesis of new collagen to aid in the closure of the wound. […] The second treatment period may be for a period 7-16 hours per day. […]

human fibroblast cells = assay: Fibroblast viability study in gNO incubation chamber (morphology, cell count, proliferation); type: cell-based
Description: Fibroblast cells obtained from adult patients undergoing elective reconstructive surgery were cultured in Dulbeco's Modified Eagle's Medium (DMEM), supplemented with 10% fetal bovine serum (FBS) and antibiotic-antimycotic preparation and divided into ten 25 cm^2 vented culture flasks (COSTAR). Four of these flasks (treated group) were exposed to 20 or 200 ppm humidified gNO inside a specialized NO incubation chamber at 37° C. for 24 and 48 hours. The NO exposure chamber was validated prior to the study to eliminate extraneous variables and ensure optimal conditions for fibroblast cell growth. Another four flasks (control group) were placed inside conventional culture incubator and exposed only to ambient humidified air at 37° C. Two flasks were separately harvested and counted as the number of cells at zero time. Following the treatment, fibroblast cells were harvested and evaluated for morphology, cell count, capacity to proliferate and medium pH.
Cells under gNO appeared healthy and attached to the culture plates.

human fibroblasts = assay: Cell attachment capacity of human fibroblasts; type: cell-based; conditions: 160 ppm gNO, within 1 hour of culturing; control group the same
Description: FIG. 9 illustrates cell attachment capacity of human fibroblasts following exposure to 160 ppm of gNO.
Capability of cells to reattach to the culture plates within a specified time limit is commonly used as an indication of viability of cells in culture. Both the control and treated groups show a 70% attachment capacity within 1 hour of culturing.

[2] = tested on: fibroblasts grown in a 3D matrix; assay: Migration and proliferation of fibroblasts grown in a 3D matrix; type: cell-based; conditions: 200 ppm NO, 8 hours per day for 3 days, vs air or conventional incubator
human endothelial cells = assay: Tube formation in human endothelial cells grown in matrigel; type: cell-based; conditions: 200 ppm NO, 8 hours or 24 hours
Description: Left panels at 8 hours of exposure. Right panels at 24 hours of exposure.

[3] = tested on: leg ulcer induced by an autoimmune disorder; assay: Autoimmune wound patient: leg ulcer in antiphospholipid antibody syndrome, topical nitric oxide gas; type: in vivo, human
Description: A patient was diagnosed with antiphospholipid antibody syndrome. Antiphospholipid antibody syndrome is an autoimmune disorder that mainly affects people under the age of 40. The disease causes the blood in the body to clot and is associated with a type of antibody that attacks blood platelets. Strokes, deep vein thrombosis (DVT), heart attacks, and pulmonary emboli are some of the manifestations of the disease. As a result of this syndrome, the patient had two DVT's and one pulmonary embolism.
Following repetitive injury to the deep venous system, the patient developed three areas of ulceration and secondary skin breakdown on the left shin area of the leg. The wound was colonized with a variety of organisms and at times had been clinically infected. The patient had been treated with numerous types of oral and IV antibiotics over several years. Many different types of dressings had been used to control the bacteria, including silver dressings, all without success.
The three small ulcers continued to grow in size and then joined together to create one large ulcer (FIG. 15A). Skin grafts on two occasions deteriorated and sloughed due to repetitive infections and high bacterial burden, even with the use of hyperbaric oxygen treatment.
With the inability to control the bacterial burden, amputation was planned. As a rescue trial, topical nitric oxide gas was applied for eight hours per night.
The nitric oxide therapy was then changed to be used for 12 hours per night, using 200 ppm gNO.

psoriatic lesions = assay: Psoriasis study, one volunteer, NO delivered to right foot in plastic boot; type: in vivo, human; conditions: 300 ppm
Description: Experiments were conducted using one volunteer who suffers from psoriasis. The subject had psoriasis on their arms, legs and feet, all of which is itchy and painful. At the time of the study, the volunteer was using a medicated cream called DOVOBET on the arms and legs. The subject stopped using the medicated cream on the legs and feet prior to the NO treatments described herein.
Treatments were administered to the subject's right foot, as it appeared to have been affected the most by psoriasis. […] Around the ankle were small red blotches that spread all of the way up the leg. The small blotches were slightly raised and appeared to be inflamed.
The subject's foot was placed into a large plastic boot, which was lightly secured with VELCRO straps halfway up the calf. A tube coming out of the top of the plastic boot was unaltered, and the second tube was sealed off using a plastic clamp. A NO line capable of delivering NO at 300 ppm, 250 cc per minute, was screwed into the bottom tubing closest to the ankle using a plastic screw. A pin was used to pick several holes in the bottom of the plastic boot to allow the NO to flow through the boot. NO was then administered to the boot, and therefore, the psoriatic lesions, at 300 ppm for 180 minutes per day over six consecutive days.

[4] = gNO less than 200 ppm continuously for 48 hours
[5] = 200 ppm gNO, 12 hours per night, another eight weeks
[6] = after second treatment (day two)
[7] = after third treatment (day three)

## [N]=O [NO, nitric oxide]
[1]; 200 ppm gNO for 24 hours, vs control group
  neutrophil concentration (inflammatory reaction) in wounds: lower level of neutrophil concentration
[1]; 200 ppm gNO for 24 hours, vs control wounds
  wound closure / healing process (histology): layer of granular tissue closing on the wound
[1]; listed as gNO
  toxic effects (cellular debris) in wound tissue: No toxic effects
[1]; listed as nitric oxide gas
  toxic effects (cellular debris) in wound tissue: no toxicity
Collagenase mRNA
  expression of collagenase mRNA: increased
Collagen mRNA; fibroblasts exposed to 5 ppm of NO
  collagen mRNA expression: increased collagen mRNA expression
Collagen mRNA; high concentration (200 ppm) of exogenous nitric oxide, FIG. 6 left panel
  collagen expression: possible inhibition of collagen expression
Human fibroblast cells; 200 ppm NO, vs control
  fibroblast cell proliferation: increasing proliferation; also recorded: increase in fibroblast cell proliferation
Human fibroblast cells; around 200 ppm gNO, 24 and 48 hours, 37° C.
  harmful effects on the fibroblast (morphology, cell count, capacity to proliferate, medium pH): did not have harmful effects
Human fibroblast cells; [4]
  morphological appearance and attachment capacity of treated vs control dermal fibroblasts: quite comparable
  toxic effect due to exposure: No toxic effect
Human fibroblasts
  attachment capacity: 70%
[2]
  migration of fibroblasts: does not appear to affect
  proliferation of fibroblasts in 3D matrix: does not appear to interfere with the proliferation
Human endothelial cells
  tube formation vs air: no significant difference
[3]; [5]
  clinical outcome (planned amputation): amputation was avoided
  wound covered by beefy red granulation tissue: ~75%
[3]; topical, eight hours per night, within six weeks
  wound appearance: less yellow slough in the wound bed, the wound edges appeared less raised, and more granulation buds were present
Psoriatic lesions; 180 min, after first treatment (day one)
  appearance of the psoriasis: no change
Psoriatic lesions; 180 min, after the first day
  white scales on the ankle: disappeared
Psoriatic lesions; 180 min per day, after day two
  discolored (dark) patch of skin on inner calf: almost gone
Psoriatic lesions; after fourth, fifth and sixth treatments (days 4, 5 and 6)
  physical results (psoriatic condition): remain the same
Psoriatic lesions; [6]
  inflammation around the ankle: diminished slightly
  small red blotches around the ankle and up the leg: the same as prior to the treatment
Psoriatic lesions; [7]
  inflammation around the ankle: decreased considerably
  psoriatic lesion around the ankle (area): smaller in area
  small red blotches around the ankle and up the leg: appeared the same
